Source: PubChem BioAssay (NCI)
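Cells were grown in 96-well plates and exposed to each compound for 48 hours at five concentrations; endpoints were interpolated linearly between bracketing concentrations, or set to the highest concentration if not reached. GI50: concentration for 50% inhibition of growth. The concentration for full growth arrest is given as TGI.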

Assays:
Experiment in all cases: DTP human tumour cell line panel, 48 h
786-0 renal = test system: 786-0 renal
A498 renal = test system: A498 renal
A549 NSCLC = test system: A549 NSCLC
ACHN renal = test system: ACHN renal
BT-549 breast = test system: BT-549 breast
CAKI-1 renal = test system: CAKI-1 renal
CCRF-CEM leukemia = test system: CCRF-CEM leukemia
COLO 205 colon = test system: COLO 205 colon
DLD-1 colon = test system: DLD-1 colon
DMS 114 small cell lung = test system: DMS 114 small cell lung
DMS 273 small cell lung = test system: DMS 273 small cell lung
DU-145 prostate = test system: DU-145 prostate
EKVX NSCLC = test system: EKVX NSCLC
HCC-2998 colon = test system: HCC-2998 colon
HCT-116 colon = test system: HCT-116 colon
HCT-15 colon = test system: HCT-15 colon
HL-60(TB) leukemia = test system: HL-60(TB) leukemia
HOP-18 NSCLC = test system: HOP-18 NSCLC
HOP-62 NSCLC = test system: HOP-62 NSCLC
HOP-92 NSCLC = test system: HOP-92 NSCLC
HS 578T breast = test system: HS 578T breast
HT29 colon = test system: HT29 colon
K-562 leukemia = test system: K-562 leukemia
KM12 colon = test system: KM12 colon
KM20L2 colon = test system: KM20L2 colon
LOX IMVI melanoma = test system: LOX IMVI melanoma
LXFL 529 NSCLC = test system: LXFL 529 NSCLC
M14 melanoma = test system: M14 melanoma
M19-MEL melanoma = test system: M19-MEL melanoma
MALME-3M melanoma = test system: MALME-3M melanoma
MCF7 breast = test system: MCF7 breast
MDA-MB-231 breast = test system: MDA-MB-231 breast
MDA-MB-435 = test system: MDA-MB-435
MOLT-4 leukemia = test system: MOLT-4 leukemia
NCI-H226 lung = test system: NCI-H226 lung
NCI-H23 lung = test system: NCI-H23 lung
NCI-H460 lung = test system: NCI-H460 lung
NCI-H522 lung = test system: NCI-H522 lung
NCI/ADR-RES ovarian = test system: NCI/ADR-RES ovarian
OVCAR-3 ovarian = test system: OVCAR-3 ovarian
OVCAR-4 ovarian = test system: OVCAR-4 ovarian
OVCAR-5 ovarian = test system: OVCAR-5 ovarian
OVCAR-8 ovarian = test system: OVCAR-8 ovarian
PC-3 prostate = test system: PC-3 prostate
RPMI-8226 leukemia = test system: RPMI-8226 leukemia
RXF 393 renal = test system: RXF 393 renal
SF-268 CNS = test system: SF-268 CNS
SF-295 CNS = test system: SF-295 CNS
SF-539 CNS = test system: SF-539 CNS
SK-MEL-2 melanoma = test system: SK-MEL-2 melanoma
SK-MEL-28 melanoma = test system: SK-MEL-28 melanoma
SK-MEL-5 melanoma = test system: SK-MEL-5 melanoma
SK-OV-3 ovarian = test system: SK-OV-3 ovarian
SN12C renal = test system: SN12C renal
SNB-19 CNS = test system: SNB-19 CNS
SNB-75 CNS = test system: SNB-75 CNS
SR leukemia = test system: SR leukemia
SW-620 colon = test system: SW-620 colon
T-47D breast = test system: T-47D breast
TK-10 renal = test system: TK-10 renal
U251 CNS = test system: U251 CNS
UACC-257 melanoma = test system: UACC-257 melanoma
UACC-62 melanoma = test system: UACC-62 melanoma
UO-31 renal = test system: UO-31 renal
XF 498 CNS = test system: XF 498 CNS
IGROV1 ovarian = test system: IGROV1 ovarian
SNB-78 CNS = test system: SNB-78 CNS

**Q.** Which results are given for C=COCCCOc1ccccc1?
**A.** GI50 (786-0 renal): > 100 µM; TGI (786-0 renal): > 100 µM; GI50 (A498 renal): > 100 µM; TGI (A498 renal): > 100 µM; TGI (A549 NSCLC): > 100 µM; TGI (ACHN renal): > 100 µM; GI50 (BT-549 breast): > 100 µM; TGI (BT-549 breast): > 100 µM; TGI (CAKI-1 renal): > 100 µM; TGI (CCRF-CEM leukemia): > 100 µM; TGI (COLO 205 colon): > 100 µM; TGI (DLD-1 colon): > 100 µM; TGI (DMS 114 small cell lung): > 100 µM; TGI (DMS 273 small cell lung): > 100 µM; GI50 (DU-145 prostate): > 100 µM; TGI (DU-145 prostate): > 100 µM; TGI (EKVX NSCLC): > 100 µM; TGI (HCC-2998 colon): > 100 µM; TGI (HCT-116 colon): > 100 µM; TGI (HCT-15 colon): > 100 µM; TGI (HL-60(TB) leukemia): > 100 µM; TGI (HOP-18 NSCLC): > 100 µM; TGI (HOP-62 NSCLC): > 100 µM; GI50 (HOP-92 NSCLC): > 100 µM; TGI (HOP-92 NSCLC): > 100 µM; GI50 (HS 578T breast): > 100 µM; TGI (HS 578T breast): > 100 µM; TGI (HT29 colon): > 100 µM; TGI (K-562 leukemia): > 100 µM; TGI (KM12 colon): > 100 µM; TGI (KM20L2 colon): > 100 µM; TGI (LOX IMVI melanoma): > 100 µM; TGI (LXFL 529 NSCLC): > 100 µM; TGI (M14 melanoma): > 100 µM; TGI (M19-MEL melanoma): > 100 µM; TGI (MALME-3M melanoma): > 100 µM; GI50 (MCF7 breast): > 100 µM; TGI (MCF7 breast): > 100 µM; GI50 (MDA-MB-231 breast): > 100 µM; TGI (MDA-MB-231 breast): > 100 µM; GI50 (MDA-MB-435): > 100 µM; TGI (MDA-MB-435): > 100 µM; TGI (MOLT-4 leukemia): > 100 µM; TGI (NCI-H226 lung): > 100 µM; TGI (NCI-H23 lung): > 100 µM; TGI (NCI-H460 lung): > 100 µM; TGI (NCI-H522 lung): > 100 µM; GI50 (NCI/ADR-RES ovarian): > 100 µM; TGI (NCI/ADR-RES ovarian): > 100 µM; TGI (OVCAR-3 ovarian): > 100 µM; TGI (OVCAR-4 ovarian): > 100 µM; TGI (OVCAR-5 ovarian): > 100 µM; TGI (OVCAR-8 ovarian): > 100 µM; GI50 (PC-3 prostate): > 100 µM; TGI (PC-3 prostate): > 100 µM; TGI (RPMI-8226 leukemia): > 100 µM; TGI (RXF 393 renal): > 100 µM; TGI (SF-268 CNS): > 100 µM; GI50 (SF-295 CNS): > 100 µM; TGI (SF-295 CNS): > 100 µM; TGI (SF-539 CNS): > 100 µM; TGI (SK-MEL-2 melanoma): > 100 µM; TGI (SK-MEL-28 melanoma): > 100 µM; TGI (SK-MEL-5 melanoma): > 100 µM; GI50 (SK-OV-3 ovarian): > 100 µM; TGI (SK-OV-3 ovarian): > 100 µM; TGI (SN12C renal): > 100 µM; TGI (SNB-19 CNS): > 100 µM; GI50 (SNB-75 CNS): > 100 µM; TGI (SNB-75 CNS): > 100 µM; TGI (SR leukemia): > 100 µM; TGI (SW-620 colon): > 100 µM; GI50 (T-47D breast): > 100 µM; TGI (T-47D breast): > 100 µM; TGI (TK-10 renal): > 100 µM; TGI (U251 CNS): > 100 µM; GI50 (UACC-257 melanoma): > 100 µM; TGI (UACC-257 melanoma): > 100 µM; GI50 (UACC-62 melanoma): > 100 µM; TGI (UACC-62 melanoma): > 100 µM; TGI (UO-31 renal): > 100 µM; TGI (XF 498 CNS): > 100 µM

**Q.** What does the source list for CC1=C(C(=O)Nc2ccccc2)C(c2ccccc2)C(C(=O)Nc2ccccc2)=C(C)N1?
**A.** TGI (786-0 renal): > 100 µM; TGI (A498 renal): > 100 µM; TGI (A549 NSCLC): > 100 µM; TGI (ACHN renal): > 100 µM; TGI (CAKI-1 renal): > 100 µM; TGI (COLO 205 colon): > 100 µM; TGI (DLD-1 colon): > 100 µM; TGI (DMS 114 small cell lung): > 100 µM; TGI (DMS 273 small cell lung): > 100 µM; TGI (EKVX NSCLC): > 100 µM; TGI (HCC-2998 colon): > 100 µM; TGI (HCT-116 colon): > 100 µM; TGI (HCT-15 colon): > 100 µM; TGI (HL-60(TB) leukemia): > 100 µM; TGI (HOP-18 NSCLC): > 100 µM; TGI (HOP-62 NSCLC): > 100 µM; TGI (HOP-92 NSCLC): > 100 µM; TGI (HT29 colon): > 100 µM; TGI (IGROV1 ovarian): > 100 µM; TGI (KM12 colon): > 100 µM; TGI (KM20L2 colon): > 100 µM; TGI (LXFL 529 NSCLC): > 100 µM; TGI (M14 melanoma): > 100 µM; TGI (M19-MEL melanoma): > 100 µM; TGI (MALME-3M melanoma): > 100 µM; TGI (MOLT-4 leukemia): > 100 µM; TGI (NCI-H226 lung): > 100 µM; TGI (NCI-H23 lung): > 100 µM; TGI (NCI-H460 lung): > 100 µM; TGI (NCI-H522 lung): > 100 µM; TGI (OVCAR-3 ovarian): > 100 µM; TGI (OVCAR-4 ovarian): > 100 µM; TGI (OVCAR-5 ovarian): > 100 µM; TGI (OVCAR-8 ovarian): > 100 µM; TGI (RXF 393 renal): > 100 µM; TGI (SF-268 CNS): > 100 µM; TGI (SF-295 CNS): > 100 µM; TGI (SF-539 CNS): > 100 µM; TGI (SK-MEL-2 melanoma): > 100 µM; TGI (SK-MEL-28 melanoma): > 100 µM; TGI (SK-MEL-5 melanoma): > 100 µM; TGI (SK-OV-3 ovarian): > 100 µM; TGI (SN12C renal): > 100 µM; TGI (SNB-19 CNS): > 100 µM; TGI (SNB-75 CNS): > 100 µM; TGI (SNB-78 CNS): > 100 µM; TGI (SW-620 colon): > 100 µM; TGI (TK-10 renal): > 100 µM; TGI (U251 CNS): > 100 µM; TGI (UACC-257 melanoma): > 100 µM; TGI (UACC-62 melanoma): > 100 µM; TGI (UO-31 renal): > 100 µM
